Legend:
[1] = Acute toxicity, lethal dose 50 (LD50), intraperitoneal; set-up: species or system albino rats I.C.R. Swiss; conditions: rat, in vivo, ip
Description: The lethal dose 50 (LD50) has been determined on albino rats I.C.R. Swiss, of both sexes, weighing 24 ± 2 g.

[2] = tested on: convulsions and lethal effect of cardiazol; experiment: Anti-convulsant activity against cardiazol; type: in vivo, albino rats I.C.R. Swiss; conditions: for number of animals with convulsions / number of dead animals: after 30 minutes cardiazol 1 mg/rat, 10 rats per lot
Method: There have been employed 4 lots of 10 rats per lot, which received:
Lot (1): I 180 mg/kg and after 30 minutes cardiazol 1 mg/rat.
Lot (2): II 35 mg/kg and after 30 minutes cardiazol 1 mg/rat.
Lot (3): III 18 mg/kg and after 30 minutes cardiazol 1 mg/rat.

[3] = tested on: hypnotic effect of the pentobarbital; experiment: Potentiation of barbiturates (sodium pentobarbital hypnotic effect); type: in vivo, albino rats I.C.R. Swiss; conditions: for Asleep after 180 minutes (number of animals) / Awake after 180 minutes (number of animals): 30 min before sodium pentobarbital 60 mg/kg i.p., of 20; for potentiation of the hypnotic effect of the pentobarbital (in words): sodium pentobarbital 60 mg/kg i.p., I 180, II 35, III 18, Diazepam 3,6 mg/kg
Method: Albino rats I.C.R. Swiss weighing 25 ± 2 g have been used.
Lot (1): Sodium pentobarbital 60 mg/kg + I (180 mg/kg).
Lot (2): Sodium pentobarbital 60 mg/kg + II (35 mg/kg).
Lot (3): Sodium pentobarbital 60 mg/kg + III (18 mg/kg).
Lot (5): Sodium pentobarbital 60 mg/kg + distilled H2 O (control lot).
The number of animals awake after 180 minutes after the administration of the barbiturate are noted. The following results have been obtained according to the statistic test of Chi^2 : […]

[4] = II 35 mg/kg, cardiazol 1 mg/rat

Compound: CCCC(CCC)C(=O)NCc1ccccn1 [Compound I, N-(2-picolyl)-dipropylacetamide]
- LD50 [1]: > 1600 mg/kg
- number of animals with convulsions ([2]; I 180 mg/kg, control 10): 9
- number of dead animals ([2]; I 180 mg/kg, control 10): 7
- protection of the lethal effect of the cardiazol ([2]; I 180 mg/kg, cardiazol 1 mg/rat): 30%
- Asleep after 180 minutes (number of animals) ([3]; I 180 mg/kg, control 1, p<0.001 (Chi^2)): 17
- Awake after 180 minutes (number of animals) ([3]; I 180 mg/kg, control 19, p<0.001 (Chi^2)): 3
- potentiation of the hypnotic effect of the pentobarbital (in words) [3]: potentiates clearly the hypnotic effect of the pentobarbital

Compound: CCCC(CCC)C(=O)NCc1cccnc1 [Compound II, N-(3-picolyl)-dipropylacetamide]
- LD50 [1]: 95 mg/kg
- number of animals with convulsions ([2]; II 35 mg/kg, control 10): 0
- number of dead animals ([2]; II 35 mg/kg, control 10): 0
- protection of the convulsions [2, 4]: 100%
- protection of the lethal effect of the cardiazol [2, 4]: 100%
- Asleep after 180 minutes (number of animals) ([3]; II 35 mg/kg, control 1, p<0.001 (Chi^2)): 14
- Awake after 180 minutes (number of animals) ([3]; II 35 mg/kg, control 19, p<0.001 (Chi^2)): 6
- potentiation of the hypnotic effect of the pentobarbital (in words) [3]: potentiates clearly the hypnotic effect of the pentobarbital

Compound: CCCC(CCC)C(=O)NCc1ccncc1 [Compound III, N-(4-picolyl) - dipropylacetamide]
- LD50 [1]: 264 mg/kg
- number of dead animals ([2]; III 18 mg/kg, control 0): 0
- number of animals with convulsions ([2]; III 18 mg/kg, control 5): 1
- protection of the convulsion effect of cardiazol ([2]; III 18 mg/kg, cardiazol 1 mg/rat): 40%
- Asleep after 180 minutes (number of animals) ([3]; III 18 mg/kg, control 4, p<0.001 (Chi^2)): 19
- Awake after 180 minutes (number of animals) ([3]; III 18 mg/kg, control 16, p<0.001 (Chi^2)): 1
- potentiation of the hypnotic effect of the pentobarbital (in words) [3]: potentiates clearly the hypnotic effect of the pentobarbital

Compound: CN1C(=O)CN=C(c2ccccc2)c2cc(Cl)ccc21 [Diazepam, reference compound]
- anti-convulsant / anti-epileptic activity (in words) ([2]; general statement): Results have been positive with cardiazol
- Asleep after 180 minutes (number of animals) ([3]; Diazepam 3,6 mg/kg, control 4, p<0.02 (Chi^2)): 15
- Awake after 180 minutes (number of animals) ([3]; Diazepam 3,6 mg/kg, control 16, p<0.02 (Chi^2)): 5
- potentiation of the hypnotic effect of the pentobarbital (in words) [3]: potentiates clearly the hypnotic effect of pentobarbital, but not as much as the three compounds according to this invention
